{
  "source": "patent US4012576A",
  "about": "“Antibiotic complex Bu 2183” (priority 1975, dated 1977)",
  "type_in_all_cases": "cell-based",
  "key": {"[1]": {"test_system": "K. pneumoniae D 11", "experiment": "Effect of media pH on MIC, two-fold agar dilution", "conditions": "Klebsiella pneumoniae, D11, Table 8, Nutrient Agar", "from_the_text": "(§1) Effect of media pH on the MIC of Bu-2183 A was studied by two-fold agar dilution method using Nutrient Agar Medium at pH 6.0, 7.0, 8.0 and 9.0."}, "[2]": {"test_system": "S. aureus Smith", "experiment": "Effect of media pH on MIC, two-fold agar dilution", "conditions": "Staphylococcus aureus, Table 8, Nutrient Agar", "from_the_text": "as §1"}, "[3]": {"test_system": "B. subtilis PCI 219", "experiment": "Effect of media pH on MIC, two-fold agar dilution", "conditions": "Bacillus subtilis, PCI219, Table 8, Nutrient Agar", "from_the_text": "as §1"}, "[4]": {"test_system": "Ps. aeruginosa D 15", "experiment": "Effect of media pH on MIC, two-fold agar dilution", "conditions": "Pseudomonas aeruginosa, D15, Table 8, Nutrient Agar", "from_the_text": "as §1"}, "[5]": {"test_system": "E. coli NIHJ", "experiment": "Effect of media pH on MIC, two-fold agar dilution", "conditions": "Escherichia coli, Table 8, Nutrient Agar", "from_the_text": "as §1"}, "[6]": {"test_system": "E. coli, K. pneumoniae, Ps. aeruginosa, S. aureus, B. subtilis", "experiment": "Effect of media pH on MIC (overall)", "conditions": "Nutrient Agar, pH 6.0-9.0", "from_the_text": "as §1"}, "[7]": {"test_system": "Ps. aeruginosa GN 315", "experiment": "MIC, two-fold agar dilution on Nutrient Agar", "procedure": "(§2) The minimum inhibitory concentrations (MIC) of Bu-2183 A and B were determined against a wide variety of bacteria by the two-fold agar dilution method on Nutrient Agar plates. The inocula-replicating device of Steers et al. was used. Inoculum size was adjusted to be 10^4 dilution of overnight culture of the test organisms in Heart Infusion Broth (Difco). The results are shown in Table 6 along with those of kanamycin which was comparatively tested as a reference antibiotic."}, "[8]": {"test_system": "E. coli ML 1630", "experiment": "MIC, two-fold agar dilution on Nutrient Agar", "conditions": "Escherichia coli, read-out: MIC", "procedure": "as §2"}, "[9]": {"test_system": "Ser. marcescens A20019", "experiment": "MIC, two-fold agar dilution on Nutrient Agar", "procedure": "as §2"}, "[10]": {"test_system": "Pr. mirabilis A9554", "experiment": "MIC, two-fold agar dilution on Nutrient Agar", "conditions": "Proteus mirabilis, read-out: MIC", "procedure": "as §2"}, "[11]": {"test_system": "Prov. stuartii A20894", "experiment": "MIC, two-fold agar dilution on Nutrient Agar", "procedure": "as §2"}, "[12]": {"test_system": "Ent. cloacae A20364", "experiment": "MIC, two-fold agar dilution on Nutrient Agar", "procedure": "as §2"}, "[13]": {"test_system": "S. aureus D193", "experiment": "MIC, two-fold agar dilution on Nutrient Agar", "procedure": "as §2"}, "[14]": {"test_system": "S. aureus Smith", "experiment": "MIC, two-fold agar dilution on Nutrient Agar", "conditions": "Staphylococcus aureus, read-out: MIC", "procedure": "as §2"}, "[15]": {"test_system": "S. aureus D133", "experiment": "MIC, two-fold agar dilution on Nutrient Agar", "conditions": "Staphylococcus aureus, read-out: MIC", "procedure": "as §2"}, "[16]": {"test_system": "Pr. morganii A20031", "experiment": "MIC, two-fold agar dilution on Nutrient Agar", "procedure": "as §2"}, "[17]": {"test_system": "K. pneumoniae D11", "experiment": "MIC, two-fold agar dilution on Nutrient Agar", "conditions": "Klebsiella pneumoniae, read-out: MIC", "procedure": "as §2"}, "[18]": {"test_system": "Ps. aeruginosa A20653", "experiment": "MIC, two-fold agar dilution on Nutrient Agar", "conditions": "Pseudomonas aeruginosa, read-out: MIC", "procedure": "as §2"}, "[19]": {"test_system": "E. coli A20732", "experiment": "MIC, two-fold agar dilution on Nutrient Agar", "procedure": "as §2"}, "[20]": {"test_system": "Ps. aeruginosa A9930", "experiment": "MIC, two-fold agar dilution on Nutrient Agar", "procedure": "as §2"}, "[21]": {"conditions": "Pseudomonas aeruginosa, GN315, Table 6, Pa-27, read-out: MIC"}, "[22]": {"conditions": "Serratia marcescens, A20019, Table 6, Sm-1, read-out: MIC"}, "[23]": {"conditions": "Providencia stuartii, A20894, Table 6, Ps-2, read-out: MIC"}, "[24]": {"conditions": "Enterobacter cloacae, A20364, Table 6, El-2, read-out: MIC"}, "[25]": {"conditions": "Staphylococcus aureus, D193, Table 6, Sa-3, read-out: MIC"}, "[26]": {"conditions": "Morganella morganii, A20031, Table 6, Pg-2, read-out: MIC"}, "[27]": {"conditions": "Escherichia coli, A20732, Table 6, Ec-72, read-out: MIC"}, "[28]": {"conditions": "Pseudomonas aeruginosa, A9930, Table 6, Pa-3, read-out: MIC"}},
  "note": "Read-outs that look alike come from different tables or passages of the source.",
  "data": [
    {"smiles": "CCC(=O)NC1C(CO)OC(OC(C(O)CN)C(N)C(O)CO)C(O)C1O", "note": "(stereo not drawn) [Bu-2183 A]", "values": [
      {"measurement": "MIC", "setting": "[1]; pH 6", "result": 12.5, "unit": "µg/mL"},
      {"measurement": "MIC", "setting": "[1]; pH 7", "result": 12.5, "unit": "µg/mL"},
      {"measurement": "MIC", "setting": "[1]; pH 8", "result": 12.5, "unit": "µg/mL"},
      {"measurement": "MIC", "setting": "[1]; pH 9", "result": 3.1, "unit": "µg/mL"},
      {"measurement": "MIC", "setting": "[2]; pH 6", "result": "> 50", "unit": "µg/mL"},
      {"measurement": "MIC", "setting": "[2]; pH 7", "result": 50, "unit": "µg/mL"},
      {"measurement": "MIC", "setting": "[2]; pH 8", "result": 50, "unit": "µg/mL"},
      {"measurement": "MIC", "setting": "[2]; pH 9", "result": 50, "unit": "µg/mL"},
      {"measurement": "MIC", "setting": "[3]; pH 6", "result": 50, "unit": "µg/mL"},
      {"measurement": "MIC", "setting": "[3]; pH 7", "result": 6.3, "unit": "µg/mL"},
      {"measurement": "MIC", "setting": "[3]; pH 8", "result": 6.3, "unit": "µg/mL"},
      {"measurement": "MIC", "setting": "[3]; pH 9", "result": 6.3, "unit": "µg/mL"},
      {"measurement": "MIC", "setting": "[4]; pH 6", "result": "> 50", "unit": "µg/mL"},
      {"measurement": "MIC", "setting": "[4]; pH 7", "result": 50, "unit": "µg/mL"},
      {"measurement": "MIC", "setting": "[4]; pH 8", "result": 25, "unit": "µg/mL"},
      {"measurement": "MIC", "setting": "[4]; pH 9", "result": 12.5, "unit": "µg/mL"},
      {"measurement": "MIC", "setting": "[5]; pH 6", "result": "> 50", "unit": "µg/mL"},
      {"measurement": "MIC", "setting": "[5]; pH 7", "result": 50, "unit": "µg/mL"},
      {"measurement": "MIC", "setting": "[5]; pH 8", "result": 25, "unit": "µg/mL"},
      {"measurement": "MIC", "setting": "[5]; pH 9", "result": 12.5, "unit": "µg/mL"},
      {"measurement": "effect of media pH on activity", "setting": "[6]", "result": "increased at alkaline pH and decreased at acidic pH"},
      {"measurement": "MIC", "setting": "[7]; [21]", "result": 25, "unit": "µg/mL"},
      {"measurement": "MIC", "setting": "[7]; Table 7, Pa-27", "result": 25, "unit": "µg/mL"},
      {"measurement": "MIC", "setting": "[8]; ML1630, Table 6, Ec-5", "result": 12.5, "unit": "µg/mL"},
      {"measurement": "MIC", "setting": "[8]; ML1630, Table 7, Ec-5", "result": 25, "unit": "µg/mL"},
      {"measurement": "MIC", "setting": "[9]; [22]", "result": "> 100", "unit": "µg/mL"},
      {"measurement": "MIC", "setting": "[9]; Table 7, Sm-1", "result": "> 100", "unit": "µg/mL"},
      {"measurement": "MIC", "setting": "[10]; A9554, Table 6, Pm-1", "result": 12.5, "unit": "µg/mL"},
      {"measurement": "MIC", "setting": "[10]; A9554, Table 7, Pm-1", "result": 25, "unit": "µg/mL"},
      {"measurement": "MIC", "setting": "[11]; [23]", "result": "> 100", "unit": "µg/mL"},
      {"measurement": "MIC", "setting": "[11]; Table 7, Ps-2", "result": "> 100", "unit": "µg/mL"},
      {"measurement": "MIC", "setting": "[12]; [24]", "result": 25, "unit": "µg/mL"},
      {"measurement": "MIC", "setting": "[12]; Table 7, El-2", "result": 25, "unit": "µg/mL"},
      {"measurement": "MIC", "setting": "[13]; [25]", "result": 25, "unit": "µg/mL"},
      {"measurement": "MIC", "setting": "[13]; Table 7, Sa-3", "result": 25, "unit": "µg/mL"},
      {"measurement": "MIC", "setting": "[14]; Table 6, Sa-2", "result": 12.5, "unit": "µg/mL"},
      {"measurement": "MIC", "setting": "[14]; Table 7, Sa-2", "result": 25, "unit": "µg/mL"},
      {"measurement": "MIC", "setting": "[15]; D133, Table 6, Sa-4", "result": 25, "unit": "µg/mL"},
      {"measurement": "MIC", "setting": "[15]; D133, Table 7, Sa-4", "result": 50, "unit": "µg/mL"},
      {"measurement": "MIC", "setting": "[16]; [26]", "result": 25, "unit": "µg/mL"},
      {"measurement": "MIC", "setting": "[16]; Table 7, Pg-2", "result": 25, "unit": "µg/mL"},
      {"measurement": "MIC", "setting": "[17]; D11, Table 6, Kp-1", "result": 3.1, "unit": "µg/mL"},
      {"measurement": "MIC", "setting": "[17]; D11, Table 7, Kp-1", "result": 6.3, "unit": "µg/mL"},
      {"measurement": "MIC", "setting": "[18]; A20653, Table 6, Pa-12", "result": 25, "unit": "µg/mL"},
      {"measurement": "MIC", "setting": "[18]; A20653, Table 7, Pa-12", "result": 50, "unit": "µg/mL"},
      {"measurement": "MIC", "setting": "[19]; [27]", "result": 12.5, "unit": "µg/mL"},
      {"measurement": "MIC", "setting": "[19]; Table 7, Ec-72", "result": 12.5, "unit": "µg/mL"},
      {"measurement": "MIC", "setting": "[20]; [28]", "result": 12.5, "unit": "µg/mL"},
      {"measurement": "MIC", "setting": "[20]; Table 7, Pa-3", "result": 12.5, "unit": "µg/mL"}
    ]},
    {"smiles": "CC(=O)NC1C(CO)OC(OC(C(O)CN)C(N)C(O)CO)C(O)C1O", "note": "(stereo not drawn) [Bu-2183 B]", "values": [
      {"measurement": "MIC", "setting": "[7]; [21]", "result": 50, "unit": "µg/mL"},
      {"measurement": "MIC", "setting": "[8]; ML1630, Table 6, Ec-5", "result": 50, "unit": "µg/mL"},
      {"measurement": "MIC", "setting": "[9]; [22]", "result": "> 100", "unit": "µg/mL"},
      {"measurement": "MIC", "setting": "[10]; A9554, Table 6, Pm-1", "result": 25, "unit": "µg/mL"},
      {"measurement": "MIC", "setting": "[11]; [23]", "result": "> 100", "unit": "µg/mL"},
      {"measurement": "MIC", "setting": "[12]; [24]", "result": 50, "unit": "µg/mL"},
      {"measurement": "MIC", "setting": "[13]; [25]", "result": 25, "unit": "µg/mL"},
      {"measurement": "MIC", "setting": "[14]; Table 6, Sa-2", "result": 50, "unit": "µg/mL"},
      {"measurement": "MIC", "setting": "[15]; D133, Table 6, Sa-4", "result": "> 100", "unit": "µg/mL"},
      {"measurement": "MIC", "setting": "[16]; [26]", "result": 50, "unit": "µg/mL"},
      {"measurement": "MIC", "setting": "[17]; D11, Table 6, Kp-1", "result": 12.5, "unit": "µg/mL"},
      {"measurement": "MIC", "setting": "[18]; A20653, Table 6, Pa-12", "result": 100, "unit": "µg/mL"},
      {"measurement": "MIC", "setting": "[19]; [27]", "result": 25, "unit": "µg/mL"},
      {"measurement": "MIC", "setting": "[20]; [28]", "result": 25, "unit": "µg/mL"}
    ]}
  ]
}
